Row | SMILES | melting point [°C]
1 | CN(Cc1cccc2c1C(=O)N(C1CCC(=O)NC1=O)C2=O)C(=O)OC(C)(C)C (centres undefined) | 138 to 140
2 | COc1ccc(NC(=O)NC2N=C(c3ccccc3)c3ccccc3N(C)C2=O)cc1 (centres undefined) | 261 to 263
3 | Cc1c(C)c2c(c(C)c1NC(=O)C(C)(C)C)C(c1ccc(C(C)C)cc1)CO2 (centres undefined) | 177 to 178
4 | C[C@H]1C[C@H](OC(=O)C(C)(C)Oc2ccc(CCNC(=O)c3ccc(Cl)cc3)cc2)CC(C)(C)C1 (relative stereo) | 100
5 | CC(C)NS(=O)(=O)Cc1ccc([N+](=O)[O-])cc1 | 146 to 147
6 | Cc1cc2c(NCc3ccc4c(c3)OCO4)nc(-n3ccnc3)nc2s1 | 162
7 | COc1ccc(SC(C(=O)NO)C(C)C)cc1 (centres undefined) | 119
8 | COCOc1ccc(Cl)c(F)c1C=O | 44 to 49
9 | CNC(C)CN1CCc2c(c(=O)oc3cc(OC)c(OC)cc23)C1 (centres undefined) | 137 to 139
10 | CC(C)(C)NC(=O)[C@@H]1C[C@H](N2CCOCC2)CN1C(=O)[C@@H](O)[C@H](Cc1ccccc1)NC(=O)[C@H](CC(N)=O)NC(=O)OCc1ccccc1 | 115 to 117
11 | CCCCCCCCCCCCCCOC(=O)c1ccc(OC)c(N)c1 | 54 to 56
12 | O=[N+]([O-])c1ccc(O)c(-c2ccsc2)c1 | 130
13 | CNc1cc(C(F)(F)F)no1 | 48.5 to 50
14 | CCCCCCCCCc1ccc(C(CCCCC(=O)O)SCCC(=O)O)cc1 (centres undefined) | 61 to 62
15 | O=C1CCC2=C(CCc3cc(F)ccc32)N1 | 223 to 224
16 | OC1CSC(Oc2ccc(-c3ccc(F)nc3)nc2Cl)C(O)C1O (centres undefined) | 199
17 | COC1CCCCC1(O)c1ccncc1 (centres undefined) | 98 to 101
18 | O=C(CCCSc1nc[nH]n1)NC/C=C\COc1cc(CN2CCCCC2)ccn1 | 87 to 89
19 | O=C(CCCC12CCC(=O)N1C(=O)CC2)OCc1ccccc1 | 102 to 105
20 | c1ccc2c(c1)CSc1nnnn1-2 | 137
21 | C=CCCc1sc(C#N)c2c1C(=O)CC(C)(C)C2 | 43 to 46
22 | CCOC(=O)/C=C/C=C/C(=O)c1cc2c(cc1C)C(C)(C)CCC2(C)C | 101 to 102

Second part, the compound after the results:

Row | melting point [°C] | SMILES
23 | 249 | Cc1nc(C)c(C(=O)Nc2cccc(Oc3ccc4nc(NC(=O)C5CC5)cn4n3)c2)s1
24 | 114 | Cc1nc(Nc2ccc(F)cc2)nc(Cl)c1C
25 | 52 to 54 | C=CCn1c2ccccc2c2ccccc21
26 | 93 to 94 | CCOC(=O)/C=C/c1cn(Cc2ccc(Oc3ccccc3)cc2)nc1OCc1nc(-c2ccccc2)oc1C
27 | 164 to 166 | NC(=O)N1C(=O)C(C(=O)c2cc(Cl)cs2)c2cc(C(F)(F)F)ccc21 (centres undefined)
28 | 173 to 175 | CCCn1c(-c2ccc(-n3ccnc3)cc2)cnc1[C@H](Cc1ccccn1)N(C=O)c1cc2cc(Cl)ccc2o1
29 | 140 to 142 | O=c1c2ccc(F)cc2oc2ccc(C(F)(F)F)cc12
30 | 106 | O=C(c1ccccc1)n1c(SC(F)(F)F)cc(-c2ccc(F)cc2)c1-c1ccc(F)cc1
31 | 130 | CCNC(=O)c1cc(Oc2nn(C)c(C(F)(F)F)c2Cl)ccc1[N+](=O)[O-]
32 | 139 to 141 | Cc1nc(N(Cc2ccccc2)Cc2ccccc2)c2nc(Cc3ccccc3)n(CCc3ccccc3)c2c1C
33 | 159 to 161 | CC(=O)Nc1c(C(=O)c2cccc(OCc3ccccc3)c2)[nH]c2cc(Cl)ccc12
34 | 147 to 148 | CC(C)(C)c1cc(-c2csc(CNc3ccccc3)n2)cc(C(C)(C)C)c1O
35 | 150 to 152 | Fc1cc(-c2nc3ccccc3o2)ccc1CBr
36 | 145 to 147 | C#CCOc1cc(C(=O)O)cc([N+](=O)[O-])c1-c1ccccc1
37 | 230 to 231 | CC(C)COc1ccccc1-c1ncc(-c2nnn[nH]2)c(=O)[nH]1
38 | 190 to 192 | CSc1cccc(-n2cnc(C(=O)O)c2)c1
39 | 229 to 231 | O=[N+]([O-])c1ccc(NC=C(S(=O)(=O)c2ccccc2)S(=O)(=O)c2ccccc2)nc1
